Results as given in patent US20260193278A1, “NOVEL PHTHALOCYANINE COMPOUNDS AND THE USE THEREOF FOR THE TREATMENT OF DISEASES” (RHODES UNIVERSITY, priority 2022, published 2026).

What was measured:
Type in all cases: cell-based
S. aureus [1] = assay: Dark toxicity against S. aureus, concentration study at 0 min (CFU counting); conditions: for Staph log CFU/ml (logarithmic reduction value) / Staph μM (concentration corresponding to the logarithmic reduction): in the dark, at 0 min; for Staph log CFU/ml (logarithmic reduction value): at the concentration of the μM column; for Staph μM (concentration corresponding to the logarithmic reduction): range tested 0-10 μM
Experimental: (§1) 500 μM stock solutions of the samples were prepared in ultra-pure water (5% DMSO) and used at different concentrations in the biological assays.
(§2) Two bacterial strains were used for the PACT studies; S. aureus as a gram-(+) bacterium and E. coli as a gram-(−) negative bacterium. Stock cultures were grown aerobically in 6 mL of nutrient broth incubated at 37° C. on a rotary shaker (~200 rpm) to obtain bacteria cultures. The incubation was maintained until the optical density of the culture at 600 nm was determined to be between 0.6 and 0.8. The resulting bacterial solution was centrifuged to remove the broth, and bacterial cells were washed three times with PBS. The solution of the bacteria was prepared by diluting with PBS to obtain […] bacteria solutions corresponding to ~10^9 and ~10^8 colony forming units (CFU)/mL, respectively.
(§3) The bacteria/photosensitizer mixtures were incubated in an oven equipped with a shaker for 30 min in the dark at 37° C. before plating. 100 μL of solution was taken from the suspension and was immediately inoculated on agar plates to determine the activity at 0 min without treatment. The number of colonies was then counted on each plate after 18 h of incubation at 37° C. Control treatments were performed in the absence of photosensitizer. All experiments were carried out three times. The data for CFU/mL were converted to the logarithmic form.

E. coli = assay: Dark toxicity against E. coli, concentration study at 0 min (CFU counting); conditions: in the dark; for Ecoli log CFU/ml (logarithmic reduction value): at the concentration of the μM column; for Ecoli μM (concentration corresponding to the logarithmic reduction): range tested 0-15 μM
Experimental: as §1, §2, §3

S. aureus [2] = assay: Photodynamic inactivation of S. aureus (with irradiation); conditions: after irradiation 20 min at 0.5, 1 and 2.5 μM
Experimental: as §2
as §3, with “Pc solutions were prepared by dissolving in water containing 5% DMSO and applied over the range of 0-10 μM for S. aureus and 0-15 μM for E. coli. The bacteria/photosensitizer” for “The bacteria/photosensitizer”

[3] = system: MCF-7 (human breast adenocarcinoma) cells; assay: In vitro dark cytotoxicity, MCF-7 cells (anticancer studies); conditions: MCF-7, dark; for Min. Death conc. / Cell death: 24 h; for Cell death: at the Min. Death conc.
Experimental: MCF-7 (human breast adenocarcinoma) cells were cultured in Dulbecco's modified Eagle's medium-10% fetal bovine serum (DMEM-FBS) and PSA (penicillin/streptomycin/Amphotericin B) at 37° C. in an incubator (5% CO2) in 75 cm^2 vented flasks. The cultures were grown as a monolayer. The growth cells were transferred to well plates by trypsinizing with 0.25% trypsin-EDTA. The Pc stock concentrations were prepared by separately dissolving them in DMSO (1%) and diluting in water and the Pc gradient concentration was prepared by taking known aliquots from the stock and finally made up to marked volume with supplemented media with phenol red.
It was studied from […] both in the dark. 100 μL each of the newly prepared gradient Pcs concentration of 0 μg/mL (control), 5 μg/mL, 10 μg/mL, 20 μg/mL, 40 μg/mL, 60 μg/mL 80 μg/mL, 100 μg/mL and 120 μg/mL were administered on the incubated seeded cells. The 96 well cell culture plates containing the cells and the Pcs were incubated at 37° C. and 5% CO2 in the dark for 24 h. After 24 h treatment, the wells were rinsed with 100 μL DPBS. Cell survival was expressed as percentage of control cells (cells without Pcs). Post treatment cell viability was measured using the cell proliferation […] reagent (WST-1 assay) on a Synergy 2 multi-mode microplate reader (BioTek®) at a wavelength of 450 nm according to the following equation 1.

Molecule | log reduction (dark toxicity) (S. aureus [1]; dark, 0 min, at 5 and 10 μM) | Staph log CFU/ml (logarithmic reduction value) (S. aureus [1]) | Staph μM (concentration corresponding to the logarithmic reduction) (S. aureus [1]) | Ecoli log CFU/ml (logarithmic reduction value) (E. coli) | Ecoli μM (concentration corresponding to the logarithmic reduction) (E. coli) | log reduction (photocytotoxicity) (S. aureus [2]) | optimal concentration to kill the cancer cells [3] | Min. Death conc. [3] | Cell death [3] | cancer cells killed at the optimal concentration ([3]; at the optimal concentration)
C[n+]1c(-c2ccc(Oc3ccc4c(c3)C3=Nc5c6ccc(Oc7ccc(-c8[nH]c9cc(Cl)cc(Cl)c9[n+]8C)cc7)cc6c6[n]5[Zn][n]5c(c7ccc(Oc8ccc(-c9[nH]c%10cc(Cl)cc(Cl)c%10[n+]9C)cc8)cc7c5=NC5=NC(=N6)c6cc(Oc7ccc(-c8[nH]c9cc(Cl)cc(Cl)c9[n+]8C)cc7)ccc65)=NC4=N3)cc2)[nH]c2cc(Cl)cc(Cl)c21.[I-].[I-].[I-].[I-] [Compound 193] | 9.63 | 9.61 log CFU/ml | 4 μM | 8.79 log CFU/ml | 1 μM | 9.63 | 40 µM | 40 µM | 72.7% | 72.7%
C[n+]1c(-c2ccc(Oc3ccc4c(c3)C3=Nc5c6ccc(Oc7ccc(-c8[nH]c9cc(Br)cc(Cl)c9[n+]8C)cc7)cc6c6[n]5[Cu][n]5c(c7ccc(Oc8ccc(-c9[nH]c%10cc(Br)cc(Cl)c%10[n+]9C)cc8)cc7c5=NC5=NC(=N6)c6cc(Oc7ccc(-c8[nH]c9cc(Br)cc(Cl)c9[n+]8C)cc7)ccc65)=NC4=N3)cc2)[nH]c2cc(Br)cc(Cl)c21.[I-].[I-].[I-].[I-] [Compound 235] |  | 9.25 log CFU/ml | 10 μM | 8.79 log CFU/ml | 12.5 μM |  |  | 10 µM | 34.8% | 
C[n+]1c(-c2ccc(Oc3ccc4c(c3)C3=Nc5c6ccc(Oc7ccc(-c8[nH]c9ccc(Cl)cc9[n+]8C)cc7)cc6c6[n]5[Zn][n]5c(c7ccc(Oc8ccc(-c9[nH]c%10ccc(Cl)cc%10[n+]9C)cc8)cc7c5=NC5=NC(=N6)c6cc(Oc7ccc(-c8[nH]c9ccc(Cl)cc9[n+]8C)cc7)ccc65)=NC4=N3)cc2)[nH]c2ccc(Cl)cc21.[I-].[I-].[I-].[I-] [Compound 242] |  | 9.24 log CFU/ml | 0.5 μM | 8.79 log CFU/ml | 2.5 μM |  |  | 120 µM | 49.8% | 
C[n+]1c(-c2ccc(Oc3ccc4c(c3)C3=Nc5c6ccc(Oc7ccc(-c8[nH]c9ccc(Cl)cc9[n+]8C)cc7)cc6c6[n]5[Co][n]5c(c7ccc(Oc8ccc(-c9[nH]c%10ccc(Cl)cc%10[n+]9C)cc8)cc7c5=NC5=NC(=N6)c6cc(Oc7ccc(-c8[nH]c9ccc(Cl)cc9[n+]8C)cc7)ccc65)=NC4=N3)cc2)[nH]c2ccc(Cl)cc21.[I-].[I-].[I-].[I-] [Compound 243] |  | 9.24 log CFU/ml | 4 μM | 8.79 log CFU/ml | 2.5 μM |  |  | 120 µM | 62.4% | 
C[n+]1c(-c2ccc(Oc3ccc4c(c3)C3=Nc5c6ccc(Oc7ccc(-c8[nH]c9ccc(Cl)cc9[n+]8C)cc7)cc6c6[n]5[Cu][n]5c(c7ccc(Oc8ccc(-c9[nH]c%10ccc(Cl)cc%10[n+]9C)cc8)cc7c5=NC5=NC(=N6)c6cc(Oc7ccc(-c8[nH]c9ccc(Cl)cc9[n+]8C)cc7)ccc65)=NC4=N3)cc2)[nH]c2ccc(Cl)cc21.[I-].[I-].[I-].[I-] [Compound 244] |  | 9.24 log CFU/ml | 10 μM | 8.79 log CFU/ml | 15 μM |  |  | 80 µM | 90.8% | 
Tetrakis [4-(4-(5-bromo-1H-benzo[d]imidazol-2-yl)phenoxy phthalocyaninato] copper(II) tetraiodide [Compound 219] |  | 9.15 log CFU/ml | 10 μM | 8.78 log CFU/ml | 12.5 μM |  |  | 10 µM | 36.9% | 
Tetrakis [4-(4-(5-bromo-1H-benzo[d]imidazol-2-yl)phenoxy phthalocyaninato] zinc(II) tetraiodide [Compound 217] |  | 9.15 log CFU/ml | 1 μM | 8.78 log CFU/ml | 5 μM |  |  | 5 µM | 40.1% | 
Tetrakis [4-(4-(5-bromo-1H-benzo[d]imidazol-2-yl)phenoxy phthalocyaninato] zinc(II) tetraiodide [Compound 218] |  | 9.15 log CFU/ml | 0.5 μM | 8.78 log CFU/ml | 1 μM |  |  | 10 µM | 56.6% | 
